Tests used:
B. burgdorferi [1] = assay: Study A: joint culture and microscopic pathology of joints and skin; type: in vivo, beagle dogs
Experimental: Comparisons included serology, skin culture results and joint pathology.
Ten joints from each dog were cultured for spirochetes and examined microscopically for changes. Joints included carpus, elbow, shoulder, stifle and tarsus on both the right and left, front and rear limbs. Skin sections were also examined for Lyme disease related changes (pathology). There were six joints from untreated dogs that cultured positive for spirochetes compared to none from dogs treated with Convenia. Microscopically, all untreated, infected dogs had skin sections with inflammatory and other changes as described for Lyme disease, whereas six of eight (75%) treated dogs had similar findings. With the exception of one treated dog with all joints free of pathology, all other dogs had at least two joints showing Lyme disease changes. Despite the microscopic findings, definitively attributing joint pathology to infection or amelioration of pathology as a result of Convenia therapy was equivocal.

B. burgdorferi [2] = assay: Study B: QC6 ELISA in tick-infected dogs; type: in vivo, beagle dogs; conditions: 8 dogs/group
Text: Three outer surface proteins (Osp) on B. burgdorferi are important for diagnosis and prevention, and are expressed by the organism in response to its local environment. […] OspF is another surface protein that is generally observed in late-stage disease. The C in […] refers to a 25-amino acid, C6 peptide in the sixth invariable region of an outer membrane lipoprotein (VIsE). Antibody against C6 is highly accurate as a serologic diagnosis of Lyme disease independent of a subject's (e.g., canine) vaccination status. Further, the generation of C6 antibodies implies an active infection with viable spirochetes. Serological methods for detecting B. burgdorfer/Lyme disease were conducted using the IDEXX qualitative SNAP-4Dx ELISA and the Quantitative C6 (Quant C6 or QC6) diagnostic kits, which are enzyme linked immunosorbent assays against the previously described 25-amino-acid C6 peptide. QC6 ELISA data, units/mL, are useful for guidance in initiating and evaluating response to therapy (See Levy S A, O'Connor T P, Hanscom J L, Shields P, et al. Quantitative measurement of a C6 antibody following antibiotic treatment of Borrelia burgdorferi antibody-positive, nonclinical dogs. Clin Vacc Immunol 2008; 15(1):115-119 and Littman M P, Goldstein R E, Labato M A, et al. ACVIM Small Animal Concensus Statement on Lyme Disease in Dogs: Diagnosis, Treatment and Prevention. J Vet Intern Med 2006; 20: 422-434).
Thirty-two (18 male and 14 female) beagle dogs were sero-negative for Borrelia burgdorferi, not vaccinated with any Borrelia spp vaccines, and acclimated at the study facility for seven days. The study was conducted under National Research Council guidelines (1996). […] Field-caught Ixodes from the northeast USA were placed on the dogs without containment chambers for 10 days; after ticks fed to repletion, dogs were treated with two applications of an approved topical acaricide with a 30-day interval between applications.
Forty days post-challenge, and prior to antibiotic treatments, blood was collected from each dog as were two skin biopsy punch samples near tick attachment sites. Blood was collected approximately monthly post-treatment. Skin biopsies were taken near the tick attachment site on Days 48/49, 118, 146, 180, and 315. Serum antibodies to Borrelia were assayed using the IDEXX SNAP-4Dx and QC6 ELISA. In cooperation with Cornell University, serum samples were analyzed using fluorescent-bead-based multiplex assays detecting antibodies against B. burgdorferi outer surface proteins OspA, OspC, and OspF. Data were expressed as median fluorescent intensities (MFI), and shown to be specific and sensitive to provide interpretative guidelines regarding infection. The skin biopsies were collected for a polymerase chain reaction (PCR; FlaB) assay and cultured for spirochete detection. At the end of the study, blood and skin biopsies were collected and synovial tissue from the joints were harvested at necropsy.
On Day 75 and Day 89 Convenia was administered to the eight dogs in T04 (8 mg/kg bodyweight; subcutaneous injection). The other treated groups received their respective regimens daily and orally for 30 days from Days 75 to 104. […] Dogs in T01 served as infected, untreated, controls. Inter-treatment comparisons to evaluate antibiotic efficacy included clinical signs, serology, culture results and pathology.

[3] = following subcutaneous injection; cited from earlier work

## CO/N=C(\C(=O)N[C@@H]1C(=O)N2C(C(=O)[O-])=C([C@@H]3CCCO3)CS[C@H]12)c1csc(N)n1.[Na+] [Convenia, (6R,7R)-7-[[(2Z)-(2-amino-4-thiazolyl)(methoxyimino)acetyl]-amino]-8-oxo-3-[(2S)-tetrahydro-2-furanyl]-5-thia-1-azabicyclo[4.2.0]oct-2-ene-2-carboxylic acid, monosodium salt]
B. burgdorferi [1]; dog, in vivo
  Number of treated dogs with all joints free of pathology: one
B. burgdorferi [1]; of eight treated infected dogs
  Number of treated dogs with skin sections with inflammatory and other changes as described for Lyme disease: six
  Treated dogs with skin sections with inflammatory and other changes as described for Lyme disease: 75%
B. burgdorferi [1]; ten joints per dog, six in untreated dogs
  Joints that cultured positive for spirochetes: none
B. burgdorferi [1]; untreated dogs: moderate to marked
  Grade of inflammatory changes in joints: none to mild
B. burgdorferi [2]; Day 48 (pre-treatment)
  Dogs Sero-converted to B. burgdorferi per QC6 ELISA (≧30 U/mL), (%): 75.0%
  Number of Dogs Sero-converted to B. burgdorferi per QC6 ELISA (≧30 U/mL), No.: 6
B. burgdorferi [2]; Day 111
  Dogs Sero-converted to B. burgdorferi per QC6 ELISA (≧30 U/mL), (%): 75.0%
  Number of Dogs Sero-converted to B. burgdorferi per QC6 ELISA (≧30 U/mL), No.: 6
B. burgdorferi [2]; Day 145
  Dogs Sero-converted to B. burgdorferi per QC6 ELISA (≧30 U/mL), (%): 0.0%
  Number of Dogs Sero-converted to B. burgdorferi per QC6 ELISA (≧30 U/mL), No.: 0
B. burgdorferi [2]; Day 179
  Dogs Sero-converted to B. burgdorferi per QC6 ELISA (≧30 U/mL), (%): 0.0%
  Number of Dogs Sero-converted to B. burgdorferi per QC6 ELISA (≧30 U/mL), No.: 0
B. burgdorferi [2]; Day 221
  Dogs Sero-converted to B. burgdorferi per QC6 ELISA (≧30 U/mL), (%): 0.0%
  Number of Dogs Sero-converted to B. burgdorferi per QC6 ELISA (≧30 U/mL), No.: 0
B. burgdorferi [2]; Day 251
  Dogs Sero-converted to B. burgdorferi per QC6 ELISA (≧30 U/mL), (%): 0.0%
  Number of Dogs Sero-converted to B. burgdorferi per QC6 ELISA (≧30 U/mL), No.: 0
B. burgdorferi [2]; Day 281
  Dogs Sero-converted to B. burgdorferi per QC6 ELISA (≧30 U/mL), (%): 0.0%
  Number of Dogs Sero-converted to B. burgdorferi per QC6 ELISA (≧30 U/mL), No.: 0
B. burgdorferi [2]; Day 314
  Dogs Sero-converted to B. burgdorferi per QC6 ELISA (≧30 U/mL), (%): 0.0%
  Number of Dogs Sero-converted to B. burgdorferi per QC6 ELISA (≧30 U/mL), No.: 0
[3]
  Absorption: rapidly and completely absorbed
